Measured values taken from patent US20250144067A1, “PERSONALIZED STARVATION THERAPY FOR CANCER” (Faeth Therapeutics, Inc., priority 2021, published 2025).
Counter-ions that a name gives are not always drawn. Like-named read-outs stand apart in the source and are kept apart here.

Tests used:
[1] = tested on: NCI-H292 lung cancer cells; assay: FDA drug screening, complete media vs cholesterol-free media without statin (TABLE 1); type: cell-based, human
[2] = tested on: NCI-H292 lung cancer cells; assay: FDA drug screening, complete media vs cholesterol-free media with simvastatin (TABLE 2); type: cell-based, human
[3] = Complete minus Cholesterol-free, >0 enhanced anti-cancer activity, about 0 neutral, <0 antagonist
[4] = NCI-H292 cells, cholesterol-free media without statin, FDA drug library screen
[5] = NCI-H292 cells, complete media, FDA drug library screen
[6] = NCI-H292 cells, drug in cholesterol-free media with simvastatin 0.04 μM
[7] = NCI-H292 cells, drug in complete media
[8] = complete media vs cholesterol-free media + simvastatin (0.04 μM), >0 enhanced anti-cancer activity, about 0 neutral, <0 antagonist
[9] = Complete minus Cholesterol-free, greater than 0 enhanced anti-cancer activity, about 0 neutral, below 0 antagonists
[10] = NCI-H292 cells in cholesterol-free media without statin
[11] = NCI-H292 cells in complete media
[12] = NCI-H292 cells, FDA library drug in cholesterol-free media with simvastatin 0.04 μM
[13] = NCI-H292 cells, FDA library drug in complete media
[14] = NCI-H292 cells, FDA drug library screen, cholesterol-free media with simvastatin 0.04 μM
[15] = NCI-H292 cells, FDA drug library screen, complete media
[16] = complete media minus cholesterol-free media + simvastatin, >0 enhanced anti-cancer activity, about 0 neutral, <0 antagonist
[17] = NCI-H292 cells, cholesterol-free media without statin
[18] = complete vs cholesterol-free media, greater than 0 enhanced anti-cancer activity, about 0 neutral, below 0 antagonists
[19] = complete vs cholesterol-free media, >0 enhanced anti-cancer activity, about 0 neutral, <0 antagonist
[20] = NCI-H292 cells, cholesterol-free media with simvastatin 0.04 μM, FDA drug library screen (TABLE 2)
[21] = NCI-H292 cells, complete media, FDA drug library screen (TABLE 2)
[22] = complete media minus cholesterol-free media + simvastatin (0.04 μM), >0 enhanced anti-cancer activity, about 0 neutral, <0 antagonist
[23] = Complete minus Cholesterol-free, greater than 0 enhanced anti-cancer activity, about 0 neutral, below 0 antagonist
[24] = NCI-H292 cells, FDA drug library screen, cholesterol-free media without statin
[25] = NCI-H292 cells, cholesterol-free media with simvastatin 0.04 μM, cell growth value in FDA drug screen
[26] = NCI-H292 cells, complete media, cell growth value in FDA drug screen

SMILES: CCCN(CCC)S(=O)(=O)c1ccc(C(=O)O)cc1 [Probenecid]
- Difference [1, 3]: −0.02
- Cholesterol-free [1, 4]: 0.9245
- Complete [1, 5]: 0.9089
- Cholesterol-free media + simvastatin (0.04 μM) [2, 6]: 1.512
- Complete Media [2, 7]: 1.266
- Difference [2, 8]: −0.25

SMILES: CC(C)(Sc1cc(C(C)(C)C)c(O)c(C(C)(C)C)c1)Sc1cc(C(C)(C)C)c(O)c(C(C)(C)C)c1 [Probucol]
- Difference [1, 9]: −0.87
- Cholesterol-free [1, 10]: 1.75
- Complete [1, 11]: 0.8825
- Cholesterol-free media + simvastatin (0.04 μM) [2, 6]: 1.293
- Complete Media [2, 7]: 1.087
- Difference [2, 8]: −0.21

SMILES: CCN(CC)CCNC(=O)c1ccc(N)cc1 [Procainamide (hydrochloride)]
- Difference [1, 9]: −0.51
- Cholesterol-free [1, 10]: 1.397
- Complete [1, 11]: 0.8831
- Cholesterol-free media + simvastatin (0.04 μM) [2, 12]: 1.529
- Complete Media [2, 13]: 1.165
- Difference [2, 8]: −0.36

SMILES: CNNCc1ccc(C(=O)NC(C)C)cc1 [Procarbazine (Hydrochloride)]
- Difference [1, 9]: −0.50
- Complete [1, 11]: 1.119
- Cholesterol-free media + simvastatin (0.04 μM) [2, 14]: 0.7556
- Complete Media [2, 15]: 1.193
- Difference [2, 16]: 0.44

SMILES: OC(CCN1CCCC1)(c1ccccc1)C1CCCCC1 (stereo not shown) [Procyclidine (hydrochloride)]
- Cholesterol-free [1, 17]: 1.459
- Complete ([1]; NCI-H292 cells, complete media): 0.997
- Difference [1, 18]: −0.46
- Cholesterol-free media + simvastatin (0.04 μM) [2, 6]: 1.237
- Complete Media [2, 7]: 1.076
- Difference [2, 8]: −0.16

SMILES: CC(=O)[C@H]1CC[C@H]2[C@@H]3CCC4=CC(=O)CC[C@]4(C)[C@H]3CC[C@]12C [Progesterone]
- Cholesterol-free [1, 17]: 1.057
- Complete ([1]; NCI-H292 cells, complete media): 0.6641
- Difference [1, 18]: −0.39
- Cholesterol-free media + simvastatin (0.04 μM) [2, 14]: 1.054
- Complete Media [2, 15]: 0.9232
- Difference [2, 8]: −0.13

SMILES: CCCN(CCC)C(=O)C(CCC(=O)O)NC(=O)c1ccccc1 (stereo not shown) [Proglumide (sodium)]
- Difference [1, 3]: −0.28
- Cholesterol-free [1, 17]: 1.258
- Complete ([1]; NCI-H292 cells, complete media): 0.9781
- Cholesterol-free media + simvastatin (0.04 μM) [2, 6]: 1.215
- Complete Media [2, 7]: 0.9616
- Difference [2, 8]: −0.25

SMILES: CCCN(CCC)C(=O)C(CCC(=O)O)NC(=O)c1ccccc1 (stereo not shown) [Proglumide]
- Cholesterol-free [1, 4]: 0.7154
- Complete [1, 5]: 1.407
- Difference [1, 19]: 0.69
- Cholesterol-free media + simvastatin (0.04 μM) [2, 20]: 0.8053
- Complete Media [2, 21]: 0.7842
- Difference [2, 22]: −0.02

SMILES: [H]/N=C(\N/C(=N/[H])Nc1ccc(Cl)cc1)NC(C)C [Proguanil]
- Difference [1, 23]: −0.09
- Cholesterol-free [1, 24]: 1.148
- Complete [1, 15]: 1.059
- Cholesterol-free media + simvastatin (0.04 μM) [2, 6]: 1.355
- Difference [2, 8]: −0.18

SMILES: CN(C)CCCN1c2ccccc2Sc2ccccc21 [Promazine (hydrochloride)]
- Difference [1, 23]: −0.18
- Cholesterol-free [1, 24]: 1.243
- Complete [1, 15]: 1.064
- Cholesterol-free media + simvastatin (0.04 μM) [2, 14]: 0.8407
- Complete Media [2, 15]: 0.9785
- Difference [2, 16]: 0.14

SMILES: CCCOc1ccc2c(c1)CC[C@@H]1[C@@H]2CC[C@]2(C)[C@@H](OC)CC[C@@H]12 [Promestriene]
- Difference ([1]; Complete minus Cholesterol-free, […]): −0.77
- Cholesterol-free [1, 10]: 1.741
- Complete [1, 11]: 0.9695
- Cholesterol-free media + simvastatin (0.04 μM) ([2]; NCI-H292 cells, cholesterol-free media with simvastatin 0.04 μM, […]): 0.8092
- Complete Media ([2]; NCI-H292 cells, complete media, […]): 0.9277
- Difference ([2]; complete media minus cholesterol-free media + simvastatin, […]): 0.12

SMILES: CCCNCC(O)COc1ccccc1C(=O)CCc1ccccc1 (stereo not shown) [Propafenone (hydrochloride)]
- Difference [1, 3]: 0.02
- Cholesterol-free [1, 4]: 1.064
- Complete [1, 5]: 1.086
- Cholesterol-free media + simvastatin (0.04 μM) [2, 20]: 1.11
- Complete Media [2, 21]: 1.1
- Difference [2, 22]: −0.01

SMILES: CC(C)[N+](C)(CCOC(=O)C1c2ccccc2Oc2ccccc21)C(C)C.[Br-] [Propantheline (bromide)]
- Difference [1, 3]: −0.02
- Cholesterol-free [1, 4]: 1.311
- Complete [1, 5]: 1.294
- Cholesterol-free media + simvastatin (0.04 μM) [2, 25]: 1.413
- Complete Media [2, 26]: 1.449
- Difference [2, 16]: 0.04

SMILES: CCCOc1ccc(C(=O)OCCN(CC)CC)cc1N [Proparacaine (Hydrochloride)]
- Cholesterol-free [1, 17]: 1.255
- Complete ([1]; NCI-H292 cells, complete media): 0.8769
- Difference [1, 18]: −0.38
- Cholesterol-free media + simvastatin (0.04 μM) [2, 14]: 0.544
- Complete Media [2, 15]: 1.021
- Difference [2, 16]: 0.48

SMILES: CC(C)c1cccc(C(C)C)c1O [Propofol]
- Cholesterol-free [1]: 0.9745
- Complete [1]: 0.7898
- Difference [1]: −0.18
- Cholesterol-free media + simvastatin (0.04 μM) [2]: 1.559
- Complete Media [2]: 1.224
- Difference [2]: −0.33

SMILES: CC(C)NCC(O)COc1cccc2ccccc12 (stereo not shown) [Propranolol (hydrochloride)]
- Cholesterol-free [1, 17]: 1.016
- Complete ([1]; NCI-H292 cells, complete media): 0.5683
- Difference [1, 18]: −0.45
- Cholesterol-free media + simvastatin (0.04 μM) [2, 20]: 0.8722
- Complete Media [2, 21]: 0.8715
- Difference [2, 22]: 0.00

SMILES: CCCOC(=O)c1cc(O)c(O)c(O)c1 [Propyl gallate]
- Cholesterol-free [1, 17]: 1.541
- Complete ([1]; NCI-H292 cells, complete media): 1.125
- Difference [1, 18]: −0.42
- Cholesterol-free media + simvastatin (0.04 μM) [2, 6]: 1.306
- Complete Media [2, 7]: 1.135
- Difference [2, 8]: −0.17

SMILES: CCCc1cc(=O)[nH]c(=S)[nH]1 [Propylthiouracil]
- Difference [1, 3]: −0.23
- Cholesterol-free [1, 17]: 1.082
- Complete ([1]; NCI-H292 cells, complete media): 0.8473
- Cholesterol-free media + simvastatin (0.04 μM) [2, 20]: 0.9529
- Complete Media [2, 21]: 0.939
- Difference [2, 22]: −0.01

SMILES: Cc1c(C(C)C)c(=O)n(-c2ccccc2)n1C [Propyphenazone]
- Difference [1, 23]: −0.12
- Cholesterol-free [1, 24]: 1.128
- Complete [1, 15]: 1.005
- Cholesterol-free media + simvastatin (0.04 μM) [2, 14]: 2.378
- Difference [2, 22]: −1.31

SMILES: CCCCC[C@H](O)/C=C/[C@H]1[C@H](O)CC(=O)[C@@H]1C/C=C\CCCC(=O)O [Prostaglandin E2]
- Difference [1, 9]: −0.61
- Cholesterol-free [1, 10]: 1.546
- Complete [1, 11]: 0.9346
- Cholesterol-free media + simvastatin (0.04 μM) [2, 25]: 0.8899
- Complete Media [2, 26]: 0.9562
- Difference [2, 16]: 0.07

SMILES: CCCc1cc(C(N)=S)ccn1 [Prothionamide]
- Difference [1, 9]: −0.62
- Cholesterol-free [1, 10]: 1.391
- Complete [1, 11]: 0.7758
- Cholesterol-free media + simvastatin (0.04 μM) [2, 25]: 1.039
- Complete Media [2, 26]: 1.099
- Difference [2, 16]: 0.06

SMILES: CNCCCC1c2ccccc2C=Cc2ccccc21 [Protriptyline (hydrochloride)]
- Difference [1, 3]: −0.19
- Cholesterol-free [1, 17]: 1.347
- Cholesterol-free media + simvastatin (0.04 μM) [2, 12]: 1.142
- Complete Media [2, 13]: 0.7923
- Difference [2, 8]: −0.35

SMILES: CC(O)Cn1cnc2c1c(=O)n(C)c(=O)n2C (stereo not shown) [Proxyphylline]
- Cholesterol-free [1, 4]: 0.7713
- Complete [1, 5]: 1.327
- Difference [1, 19]: 0.56
- Cholesterol-free media + simvastatin (0.04 μM) [2, 12]: 1.208
- Complete Media [2, 13]: 0.9431
- Difference [2, 8]: −0.26

SMILES: COCCCN1CCC(NC(=O)c2cc(Cl)c(N)c3c2OCC3)CC1 [Prucalopride]
- Difference [1, 9]: −0.49
- Cholesterol-free [1, 10]: 1.522
- Complete [1, 11]: 1.033
- Cholesterol-free media + simvastatin (0.04 μM) [2, 25]: 0.8751
- Complete Media [2, 26]: 0.9854
- Difference [2, 16]: 0.11

SMILES: Cc1oc(=O)oc1CN1CCN(c2cc3c(cc2F)c(=O)c(C(=O)O)c2n3C(C)S2)CC1 (stereo not shown) [Prulifloxacin]
- Cholesterol-free [1, 4]: 1.111
- Complete [1, 5]: 1.213
- Difference [1, 19]: 0.10
- Cholesterol-free media + simvastatin (0.04 μM) [2, 14]: 0.966
- Difference [2, 16]: 0.21
